Legend:
[1] = tested on: Fusarium nivale ATCC 42308; experiment: Influence on growth of mold (length and branching degree of hyphae); assay type: cell-based; set-up: Length Hypha: unit not given here; conditions: after 32 hours; for Branching Degree of Hypha (mean value of branch intervals of hyphae) / Length Hypha: 28° C.
Description: Demethylallosamidin was added to the culture medium of mold to examine its influence. Firstly, Fusarium nivale ATCC 42308 was precultured in PDA medium (manufactured by Nissui Pharmaceutical Co., Ltd.) to form spores. The spores were suspended in physiological saline. The suspension was filtered through cotton to give a spore suspension free of hyphae. A fixed amount of the resulting suspension was inoculated on a medium supplemented with demethylallosamidin (0.80 μg/ml, 0.16 μg/ml) and on demethylallosamidin-free medium (control), respectively. […] The observation was performed as follows: sampling was made over definite periods of time, microscopic photographs were taken and the length and branching degree of hyphae were determined. The branching degree of hyphae is a mean value of branch intervals of hyphae. In any case, incubation was carried out at 28° C. at 120 strokes/min by charging 1 ml each of medium (0.03% of yeast extract, 0.03% of malt extract; both manufactured by Daigo Nutrient Co., Ltd.) and 0.1% of glucose in a testing tube with a cotton stopper (diameter of 11 mm).

[2] = tested on: Mouse ascitic mammary cancer cells FM3A; experiment: Cytotoxicity, mouse ascitic mammary cancer cells FM3A; assay type: cell-based; conditions: 1 mg/ml, 37° C., 4 days
Description: (i) Mouse ascitic mammary cancer cells FM3A were inoculated in 1×10^5 /ml on Dulbecco modified MEM medium supplemented with 10% fetal calf serum and demethylallosamidin was added thereto in a concentration of 1 mg/ml followed by stationary culture at 37° C. for 4 days.

[3] = target: T1, fungi-derived chitinase (chitinase solution from baker's yeast) (Saccharomyces cerevisiae, UniProt P29029); experiment: Determination of chitinase inhibitory activity (3H-chitin hydrolysis); assay type: biochemical; conditions: for Inhibition Rate (%): 37° C., 3 hours, pH 3.0
T1 construct: The cells were removed by centrifugation (0° C., 10 mins., 12,000 g); The resulting supernatant was concentrated to 200 ml by ultrafiltration; host or cells: baker's yeast; concentrated, acid-treated supernatant of shaken cells
T1 sequence (P29029 21-562): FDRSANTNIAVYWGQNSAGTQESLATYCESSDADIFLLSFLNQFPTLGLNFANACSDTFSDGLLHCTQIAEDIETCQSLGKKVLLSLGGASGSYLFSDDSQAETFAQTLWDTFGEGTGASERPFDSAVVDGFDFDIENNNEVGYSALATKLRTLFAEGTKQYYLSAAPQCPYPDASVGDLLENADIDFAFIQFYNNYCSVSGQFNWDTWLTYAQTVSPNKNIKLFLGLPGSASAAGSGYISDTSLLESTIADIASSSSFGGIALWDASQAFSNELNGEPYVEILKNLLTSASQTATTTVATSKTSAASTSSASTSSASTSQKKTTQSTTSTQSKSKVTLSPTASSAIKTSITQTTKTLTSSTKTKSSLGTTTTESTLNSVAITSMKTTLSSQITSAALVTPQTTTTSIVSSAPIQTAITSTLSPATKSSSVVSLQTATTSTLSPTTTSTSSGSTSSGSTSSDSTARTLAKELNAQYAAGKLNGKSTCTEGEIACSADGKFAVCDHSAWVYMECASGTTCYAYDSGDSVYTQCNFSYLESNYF
Description: A Sakaguchi flask of 2 liters was charged with 1 liter of 25 mM MES (Nakarai Chemical Co., Ltd.) buffer containing 0.1% β-mercaptoethanoland 200 g of baker's yeast (Kanegafuchi Chemical Industry Co., Ltd.) followed by shaking at 30° C. at 120 spm for 2 hours. The cells were removed by centrifugation (0° C., 10 mins., 12,000 g). The resulting supernatant was concentrated to 200 ml by ultrafiltration (TOYO ULTRAFILTER UP-20). After concentration, 400 ml of citrate buffer (0.15 M citric acid+0.15 M sodium citrate, pH 3.0) was added to the concentrate. After the formed precipitates were removed by centrifugation (0° C., 10 mins., 12,000 g), the resulting supernatant was concentrated to 40 ml by ultrafiltration. The concentrate was stored at 4° C. and used as the chitinase solution in the assay.
10 ml of 10% acetic acid was slowly added to 0.5 g of chitosan (PFANSTIEHL LABORATORIES INC.), then the mixture was kneaded in a mortar to become gel-like. After standing at room temperature overnight, 45 ml of methanol was added while thoroughly stirring. The mixture was filtered through a gauze and 0.75 ml of ^3 H-labeled acetic anhydride (NET 018A10 ACETIC ANHYDRIDE 5 mCi) was added to the filtrate obtained. The formed agar-like chitin was homogenized with a homogenizer, collected on a glass filter (Whatmann GF/B) and suspended in 10 ml of citrate buffer (pH 3.0). This chitin suspension (2.3 μCi/ml chitin suspension) was used as a substrate for assay.
In an Epfendorf tube, 90 μl of the chitinase solution and 10 μl of the ^3 H-chitin suspension were charged and reacted at 37° C. for 3 hours. In this case, 90 μl of citrate buffer (pH 3.0) was used in place of 90 μl of the enzyme solution as a control sample and reacted in a similar manner. After the reaction, 100 μl of 10% trichloroacetic acid was added and the reaction solution was passed through a glass filter (Whatmann GF/B). After 10 ml of scintillant solution was added to the obtained filtrate, its radioactivity (dpm) was determined. The difference between the determined value and the control sample indicated chitinase activity. The scintillant solution was prepared by dissolving 4 g of Ominiflour (Daiichi Chemical) in 500 ml of toluene and adding 500 ml of Triton X-100 (Nakarai Chemical Co., Ltd.) to the solution.
When allosamidin and demethylallosamidin were added, both were dissolved in 0.1 N acetic acid solution and 10 μl each of the solutions having the respective concentrations was added to the reaction system described above. Also, 10 μl of 0.1 N acetic acid was added to the blank and to the system in which no inhibitor was added, followed by the reaction described above.
The inhibitory activity was calculated according to the equation below: [formula] wherein: A=chitinase activity (dpm) when no inhibitor was added.
B=chitinase activity (dmp) when the inhibitor was added.
In any of the measurements, three series of runs were used and a mean value was determined.

[4] = tested on: Human leukemia cells K562; experiment: Cytotoxicity, human leukemia cells K562; assay type: cell-based; conditions: 1 mg/ml, 37° C., 4 days
Description: (ii) Human leukemia cells K562 were inoculated in 1×10^5 /ml on FRMI 1640 medium supplemented with 10% fetal calf serum and demethylallosamidin was added thereto in a concentration of 1 mg/ml followed by stationary culture at 37° C. for 4 days.

[5] = tested on: endo-type chitinase derived from insects; conditions: background statement; cited from earlier work
[6] = target: T1, fungi-derived chitinase (chitinase solution from baker's yeast); conditions: background statement; cited from earlier work
[7] = addition of demethylallosamidin

CNC1=NC2C(O)C(OC3OC(CO)C(OC4OC(CO)C(O)C(O)C4NC(C)=O)C(O)C3NC(C)=O)C(CO)C2O1 (single isomer, unassigned) [Demethylallosamidin, demethylallosamidin]
Branching Degree of Hypha (mean value of branch intervals of hyphae) ([1]; 0.16 μg/ml): 72.8 μm | Length Hypha ([1]; 0.16 μg/ml): 364 | Branching Degree of Hypha (mean value of branch intervals of hyphae) ([1]; 0.80 μg/ml): 74.2 μm | Length Hypha ([1]; 0.80 μg/ml): 576 | branching degree of hyphae (in words) [1, 7]: decreased | length of hyphae (in words) [1, 7]: obviously increased | growth inhibition (microscopic observation) [2]: no growth inhibition | growth inhibition (microscopic observation) ([2]; listed as demethylallosamidin): no growth inhibition was noted at all | inhibitory activity against fungi-derived chitinase (in words) [3]: potent inhibitory activity | Inhibition Rate (%) ([3]; amount added 0.05 μg): 61.1% | Inhibition Rate (%) ([3]; amount added 0.1 μg): 73.9% | Inhibition Rate (%) ([3]; amount added 0.2 μg): 75.2% | Inhibition Rate (%) ([3]; amount added 0.4 μg): 84.6% | Inhibition Rate (%) ([3]; amount added 0.8 μg): 87.1% | inhibitory activity per unit weight relative to allosamidin ([3]; fungi-derived chitinase, versus allosamidin): ≤ 100 times | growth inhibition (microscopic observation) [4]: no growth inhibition | growth inhibition (microscopic observation) ([4]; listed as demethylallosamidin): no growth inhibition was noted at all

CC(=O)N[C@H]1[C@H](O[C@H]2[C@@H](O)[C@@H](NC(C)=O)[C@H](O[C@H]3[C@H](O)[C@H]4N=C(N(C)C)O[C@H]4[C@@H]3CO)O[C@@H]2CO)O[C@H](CO)[C@@H](O)[C@H]1O [Allosamidin, allosamidin]
inhibition of endo-type chitinase derived from insects (in words) [5]: strongly inhibits | Inhibition Rate (%) ([3]; amount added 1 μg): 36.0% | Inhibition Rate (%) ([3]; amount added 2 μg): 47.6% | Inhibition Rate (%) ([3]; amount added 4 μg): 58.5% | inhibitory activity against chitinase derived from fungi (in words, background) [6]: weakly inhibitory activity
